Test results as given in US11161830B2, “4-pyridone compound or salt thereof, and pharmaceutical composition and formulation including same” (priority 2017, dated 2021).
Where “and” joins values, the source holds several entries; their conditions need not be identical. Identical values can stand only once.

Key:
[1] = test system: HBV genotype C; experiment: Test Example 3-2: in vivo efficacy study in PXB mouse (chimeric mouse with human hepatocytes), first and second study; set-up: species or system hepatitis B virus; details: second study, orally 3 mg/kg twice a day for 14 days from day 35, individual mice, 3 mg/kg
Method: An in vivo efficacy study with a PXB mouse (a chimeric mouse with human hepatocytes) was carried out in PhenixBio Co., Ltd. 19-Week-or-more-old male mice having body weights of 10.5 g or more after the elapse of 13 weeks or more from the infection with HBV genotype C were allocated into the respective groups and used. The studies were carried out twice, and a 21-day administration withdrawal period was provided between the first study and the second study.
The first administration day in the first study was taken as day 0, and the compound of Example 6-5 was orally administered at 1 mg/kg, 3 mg/kg, 10 mg/kg, and 30 mg/kg twice a day, or 0.5% methylcellulose (vehicle) was orally administered once a day for 14 days. Before administration on day 0, day 3, Day 7, and day 10, and on day 14, the blood was collected from the orbital venous plexus under anesthesia with isoflurane.
The first administration day in the second study was taken as day 35, and the compounds of Examples 19-2 and 20-2 were each orally administered at 3 mg/kg twice a day, or 0.5% methylcellulose (vehicle) was orally administered once a day for 14 days. Before administration on day 35, day 38, day 42, and day 45, the blood was collected from the orbital venous plexus under anesthesia with isoflurane. On day 49, the blood was collected from the heart under anesthesia with isoflurane.
The serum was separated from the collected blood and purified with a QIAamp (registered trademark) DNA Blood Mini Kit (manufactured by QIAGEN). The amount of HBV-DNA in the obtained solution was absolutely quantified by a real-time PCR method. In addition, the amount of HBsAg in the serum was absolutely quantified by chemiluminescent enzyme immunoassay using Lumipulse (registered trademark) HBsAg-HQ (manufactured by Fujirebio Inc.).

[2] = test system: HBV genotype C; experiment: Test Example 3-3: in vivo efficacy study in PXB mouse (chimeric mouse with human hepatocytes); set-up: species or system hepatitis B virus; details: individual mice
Method: An in vivo efficacy study with a PXB mouse (a chimeric mouse with human hepatocytes) was carried out in PhenixBio Co., Ltd. Male mice having body weights of 15 g or more after the elapse of 8 weeks from the infection with HBV genotype C were allocated into the respective groups and used.
The compounds of Example 20-2 was orally administered at 2 mg/kg, 6 mg/kg, and 20 mg/kg once a day, and at 1 mg/kg, 3 mg/kg, and 10 mg/kg twice a day, or 0.5% methylcellulose (vehicle) was orally administered once a day for 14 days. A first administration day was taken as day 0, and before administration on day 0, day 3, Day 7, and day 10, and on day 14, the blood was collected from the orbital venous plexus under anesthesia with isoflurane.
The serum was separated from the collected blood and purified with a QIAamp (registered trademark) DNA Blood Mini Kit (manufactured by QIAGEN). The amount of HBV-DNA in the obtained solution was absolutely quantified by a real-time PCR method. In addition, the amount of HBsAg in the serum was absolutely quantified by chemiluminescent enzyme immunoassay using Lumnipulse (registered trademark) HBsAg-HQ (manufactured by Fujirebio Inc.).

[3] = orally 1 mg/kg twice a day, Day 0 (before administration), 1 mg/kg
[4] = orally 1 mg/kg twice a day, Day 3, 1 mg/kg
[5] = orally 1 mg/kg twice a day, Day 7, 1 mg/kg
[6] = orally 1 mg/kg twice a day, Day 10, 1 mg/kg
[7] = orally 1 mg/kg twice a day, Day 14, 1 mg/kg
[8] = orally 2 mg/kg once a day, Day 0 (before administration), 2 mg/kg
[9] = orally 2 mg/kg once a day, Day 3, 2 mg/kg
[10] = orally 2 mg/kg once a day, Day 7, 2 mg/kg
[11] = orally 2 mg/kg once a day, Day 10, 2 mg/kg
[12] = orally 2 mg/kg once a day, Day 14, 2 mg/kg
[13] = orally 3 mg/kg twice a day, Day 0 (before administration), 3 mg/kg
[14] = orally 3 mg/kg twice a day, Day 3, 3 mg/kg
[15] = orally 3 mg/kg twice a day, Day 7, 3 mg/kg
[16] = orally 3 mg/kg twice a day, Day 10, 3 mg/kg
[17] = orally 3 mg/kg twice a day, Day 14, 3 mg/kg
[18] = orally 6 mg/kg once a day, Day 0 (before administration), 6 mg/kg
[19] = orally 6 mg/kg once a day, Day 3, 6 mg/kg
[20] = orally 6 mg/kg once a day, Day 7, 6 mg/kg
[21] = orally 6 mg/kg once a day, Day 10, 6 mg/kg
[22] = orally 6 mg/kg once a day, Day 14, 6 mg/kg
[23] = orally 10 mg/kg twice a day, Day 0 (before administration), 10 mg/kg
[24] = orally 10 mg/kg twice a day, Day 3, 10 mg/kg
[25] = orally 10 mg/kg twice a day, Day 7, 10 mg/kg
[26] = orally 10 mg/kg twice a day, Day 10, 10 mg/kg
[27] = orally 10 mg/kg twice a day, Day 14, 10 mg/kg
[28] = orally 20 mg/kg once a day, Day 0 (before administration), 20 mg/kg
[29] = orally 20 mg/kg once a day, Day 3, 20 mg/kg
[30] = orally 20 mg/kg once a day, Day 7, 20 mg/kg
[31] = orally 20 mg/kg once a day, Day 10, 20 mg/kg
[32] = orally 20 mg/kg once a day, Day 14, 20 mg/kg

COC1CN(c2nc3ccc(-n4cc(C(=O)O)c(=O)cc4-c4ccc(N5CC[C@@H](OC)C5)c(F)c4)cc3s2)C1 [Example 20-2]
HBV-DNA in blood ([1]; Day 35 (before administration)): 8.2E+08 copies/mL and 8.3E+08 copies/mL
HBsAg in serum ([1]; Day 35 (before administration)): 2,556 IU/mL and 3,408 IU/mL
HBV-DNA in blood ([1]; Day 38): 4.6E+08 copies/mL and 4.0E+08 copies/mL
HBsAg in serum ([1]; Day 38): 948 IU/mL and 1,061 IU/mL
HBV-DNA in blood ([1]; Day 42): 2.6E+08 copies/mL and 5.0E+08 copies/mL
HBsAg in serum ([1]; Day 42): 832 IU/mL and 1,478 IU/mL
HBV-DNA in blood ([1]; Day 45): 3.5E+08 copies/mL and 3.1E+08 copies/mL
HBsAg in serum ([1]; Day 45): 859 IU/mL and 1,185 IU/mL
HBV-DNA in blood ([1]; Day 49): 2.3E+08 copies/mL and 2.7E+08 copies/mL
HBsAg in serum ([1]; Day 49): 1,444 IU/mL and 924 IU/mL
HBV-DNA in blood [2, 3]: 2.8E+08 copies/mL and 1.4E+08 copies/mL
HBsAg in serum [2, 3]: 3,352 IU/mL and 2,640 IU/mL and 4,436 IU/mL
HBV-DNA in blood [2, 4]: 1.7E+08 copies/mL and 1.2E+08 copies/mL and 3.7E+08 copies/mL
HBsAg in serum [2, 4]: 3,056 IU/mL and 2,193 IU/mL and 4,655 IU/mL
HBV-DNA in blood [2, 5]: 1.4E+08 copies/mL
HBsAg in serum [2, 5]: 3,033 IU/mL and 1,691 IU/mL and 3,774 IU/mL
HBV-DNA in blood [2, 6]: 1.4E+08 copies/mL and 3.7E+08 copies/mL
HBsAg in serum [2, 6]: 2,356 IU/mL and 1,694 IU/mL and 3,775 IU/mL
HBV-DNA in blood [2, 7]: 2.5E+08 copies/mL and 1.3E+08 copies/mL and 6.9E+08 copies/mL
HBsAg in serum [2, 7]: 2,833 IU/mL and 2,077 IU/mL and 4,276 IU/mL
HBV-DNA in blood [2, 8]: 4.5E+08 copies/mL and 4.7E+08 copies/mL and 4.4E+08 copies/mL
HBsAg in serum [2, 8]: 2,534 IU/mL and 2,701 IU/mL and 3,776 IU/mL
HBV-DNA in blood [2, 9]: 3.3E+08 copies/mL
HBsAg in serum [2, 9]: 2,393 IU/mL and 1,918 IU/mL and 3,502 IU/mL
HBV-DNA in blood [2, 10]: 1.7E+08 copies/mL and 5.3E+08 copies/mL
HBsAg in serum [2, 10]: 1,612 IU/mL and 2,211 IU/mL and 3,236 IU/mL
HBV-DNA in blood [2, 11]: 4.2E+08 copies/mL and 4.3E+08 copies/mL and 3.9E+08 copies/mL
HBsAg in serum [2, 11]: 1,946 IU/mL and 1,609 IU/mL and 3,623 IU/mL
HBV-DNA in blood [2, 12]: 4.3E+08 copies/mL
HBsAg in serum [2, 12]: 1,526 IU/mL and 2,321 IU/mL and 3,366 IU/mL
HBV-DNA in blood [2, 13]: 3.4E+08 copies/mL and 3.8E+08 copies/mL
HBsAg in serum [2, 13]: 2,582 IU/mL and 2,395 IU/mL and 3,879 IU/mL
HBV-DNA in blood [2, 14]: 2.2E+08 copies/mL and 1.8E+08 copies/mL and 2.1E+08 copies/mL
HBsAg in serum [2, 14]: 1,034 IU/mL and 1,048 IU/mL and 1,801 IU/mL
HBV-DNA in blood [2, 15]: 2.8E+08 copies/mL and 1.2E+08 copies/mL and 1.8E+08 copies/mL
HBsAg in serum [2, 15]: 1,275 IU/mL and 785 IU/mL and 1,286 IU/mL
HBV-DNA in blood [2, 16]: 4.3E+08 copies/mL
HBsAg in serum [2, 16]: 1,017 IU/mL and 900 IU/mL and 1,379 IU/mL
HBV-DNA in blood [2, 17]: 3.7E+08 copies/mL and 3.4E+08 copies/mL and 3.6E+08 copies/mL
HBsAg in serum [2, 17]: 1,051 IU/mL and 910 IU/mL and 1,375 IU/mL
HBV-DNA in blood [2, 18]: 6.7E+08 copies/mL and 1.6E+08 copies/mL and 4.3E+08 copies/mL
HBsAg in serum [2, 18]: 3,883 IU/mL and 1,905 IU/mL and 3,703 IU/mL
HBV-DNA in blood [2, 19]: 3.8E+08 copies/mL and 2.0E+08 copies/mL and 1.7E+08 copies/mL
HBsAg in serum [2, 19]: 3,331 IU/mL and 1,529 IU/mL and 2,004 IU/mL
HBV-DNA in blood [2, 20]: 1.5E+08 copies/mL and 3.3E+08 copies/mL
HBsAg in serum [2, 20]: 3,453 IU/mL and 1,321 IU/mL and 2,025 IU/mL
HBV-DNA in blood [2, 21]: 3.8E+08 copies/mL and 2.2E+08 copies/mL and 1.5E+08 copies/mL
HBsAg in serum [2, 21]: 2,920 IU/mL and 1,342 IU/mL and 1,100 IU/mL
HBV-DNA in blood [2, 22]: 2.2E+08 copies/mL and 1.5E+08 copies/mL and 7.7E+08 copies/mL
HBsAg in serum [2, 22]: 2,569 IU/mL and 1,312 IU/mL and 1,879 IU/mL
HBV-DNA in blood [2, 23]: 4.2E+08 copies/mL and 3.8E+08 copies/mL
HBsAg in serum [2, 23]: 3,678 IU/mL and 2,545 IU/mL and 3,727 IU/mL
HBV-DNA in blood [2, 24]: 1.7E+08 copies/mL and 2.5E+08 copies/mL
HBsAg in serum [2, 24]: 994 IU/mL and 735 IU/mL and 901 IU/mL
HBV-DNA in blood [2, 25]: 2.1E+08 copies/mL and 1.6E+08 copies/mL and 1.1E+08 copies/mL
HBsAg in serum [2, 25]: 707 IU/mL and 547 IU/mL and 708 IU/mL
HBV-DNA in blood [2, 26]: 1.5E+08 copies/mL and 1.7E+08 copies/mL
HBsAg in serum [2, 26]: 861 IU/mL and 593 IU/mL and 676 IU/mL
HBV-DNA in blood [2, 27]: 2.0E+08 copies/mL
HBsAg in serum [2, 27]: 931 IU/mL and 620 IU/mL and 738 IU/mL
HBV-DNA in blood [2, 28]: 2.8E+08 copies/mL
HBsAg in serum [2, 28]: 3,225 IU/mL and 3,886 IU/mL and 2,106 IU/mL
HBV-DNA in blood [2, 29]: 2.1E+08 copies/mL and 2.0E+08 copies/mL and 9.7E+07 copies/mL
HBsAg in serum [2, 29]: 1,239 IU/mL and 1,019 IU/mL and 517 IU/mL
HBV-DNA in blood [2, 30]: 1.6E+08 copies/mL and 1.4E+08 copies/mL and 8.2E+07 copies/mL
HBsAg in serum [2, 30]: 1,003 IU/mL and 877 IU/mL and 385 IU/mL
HBV-DNA in blood [2, 31]: 3.3E+08 copies/mL and 2.5E+08 copies/mL and 1.5E+08 copies/mL
HBsAg in serum [2, 31]: 1,200 IU/mL and 1,104 IU/mL and 493 IU/mL
HBV-DNA in blood [2, 32]: 2.1E+08 copies/mL and 2.9E+08 copies/mL and 1.6E+08 copies/mL
HBsAg in serum [2, 32]: 1,037 IU/mL and 1,159 IU/mL and 497 IU/mL
